From article PMC10786919, “Design-rules for stapled peptides with in vivo activity and their application to Mdm2/X antagonists” (Nature Communications, 2024) come the findings set out here.

pEC50: −log10 of the molar value. Values after ≈ are worked out from the molar mass of the structure shown. Positions of bridges follow the written chain, without caps; N, C: chain ends. Non-standard residues stand in square brackets, D forms with d. Residues, ends and D or L forms follow the SMILES beside them. Lys(N3) = [N-]=[N+]=NCCCC[C@H](N)C(=O)O; hArg = N=C(N)NCCCC[C@H](N)C(=O)O; R8 = C=CCCCCCC[C@@](C)(N)C(=O)O; Cba = N[C@@H](CC1CCC1)C(=O)O; S5 = C=CCCC[C@](C)(N)C(=O)O; βAla = NCCC(=O)O; Sar = CNCC(=O)O A value given as a limit tells only on which side of the number the result lay.

Data set [1] can be described thus: Lactate dehydrogenase (LDH) release assay. It is filed as cell-based. As to conditions: LDH: Cytotoxicity assay: EC50. In short, it runs like this:
(§1)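 HCT116 cells stably carrying a p53-responsive β-lactamase reporter were seeded at 8000 cells per well with a final DMSO level of 0.5%. Membrane integrity was assessed by lactate dehydrogenase release using a homogeneous fluorometric kit. Values are geometric means of at least three biological replicates.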

Data set [2] in a line: Solubility assay (kinetic solubility, PBS pH 7). To be noted: pH 7, aqueous buffer, kinetic from dmso stock, pH 7, PBS; read-out: Solubility. Type of data set: physicochemical. Put shortly:
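Reference standards were made by diluting the 10 mM stock to 100 µM in acetonitrile:methanol:DMSO 10:80:10. Solubility in µM was calculated as the sample peak area divided by the standard peak area, multiplied by the standard concentration.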

Another data set can be described thus: in vitro. To be noted: Nanoclick permeability assay EC50. Put shortly: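 Azido-peptide permeability was read as loss of NanoBRET signal (donor 450 nm, acceptor 610 nm) after adding NanoBret618-azide at 10 μM final.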
Data set [3] in a line: Experimental LogD (partition coefficient). As to conditions: not stated, Partition Coeff LogD.
A further data set deals with HCT116 cells. Briefly: Lactate dehydrogenase (LDH) release assay. Type of data set: cell-based. In short, it runs like this: as §1

For orientation: pEC50 means the negative decadic logarithm of the EC50, by convention in mol/L. A higher pEC50 goes with a small EC50. What is called logD is the decadic logarithm of the distribution of all forms, ionised or not, between an organic phase and buffer at a given pH. In the case of `CC(=O)N[C@@H](CCCCN=[N+]=[N-])C(=O)NCCC(=O)N(C)CC(=O)N[C@H](C(=O)N[C@@H](Cc1ccccc1)C(=O)N[C@]1(C)CCCCCCC=CCCC[C@@](C)(C(=O)N[C@@H](CO)C(=O)N[C@@H](C)C(=O)N[C@@H](C)C(N)=O)NC(=O)[C@H](CC2CCC2)NC(=O)[C@H](CCC(N)=O)NC(=O)[C@H](C)NC(=O)[C@H](Cc2c[nH]c3ccccc23)NC(=O)[C@H](Cc2ccc(O)cc2)NC(=O)[C@H](CCC(=O)O)NC1=O)[C@@H](C)O` [MP-799] (Ac-[Lys(N3)][βAla][Sar]TF[R8]EYWAQ[Cba][S5]SAA-NH2; staple 6-13), the pEC50 in data set [1] is less than 4.30. The solubility kinetic in data set [2] turned out to be 82.5 µM (≈ 159 µg/mL). Besides, in the data set “in vitro”, the cell entry EC50 was greater than 10 µM. The EPSA in “physchem” was determined as 219 A^2. The compound further returned a logD in data set [3] of 2.6.
The matching figures for `CC(=O)N[C@@H](CCCCN=[N+]=[N-])C(=O)NCCC(=O)N[C@@H](CC(C)C)C(=O)N[C@@H](CCCCNC(=N)N)C(=O)N[C@@H](Cc1ccccc1)C(=O)N[C@]1(C)CCCCCCC=CCCC[C@@](C)(C(=O)N[C@@H](CO)C(=O)N[C@@H](C)C(=O)N[C@@H](C)C(N)=O)NC(=O)[C@H](CC2CCC2)NC(=O)[C@H](CCC(N)=O)NC(=O)[C@H](C)NC(=O)[C@H](Cc2c[nH]c3ccccc23)NC(=O)[C@H](Cc2ccc(O)cc2)NC(=O)[C@H](CCC(=O)O)NC1=O` [MP-6897] (Ac-[Lys(N3)][βAla]L[hArg]F[R8]EYWAQ[Cba][S5]SAA-NH2; staple 6-13): less than 4.30, 9 µM (≈ 18.4 µg/mL), 1.51 µM, 210 A^2 and 2.94.
For `CC(=O)N[C@@H](CCCCN=[N+]=[N-])C(=O)NCCC(=O)N[C@@H](CC(C)C)C(=O)N[C@H](C(=O)N[C@@H](Cc1ccccc1)C(=O)N[C@]1(C)CCCCCCC=CCCC[C@@](C)(C(=O)N[C@@H](CO)C(=O)N[C@@H](C)C(=O)N[C@@H](C)C(N)=O)NC(=O)[C@H](CC2CCC2)NC(=O)CNC(=O)[C@H](C)NC(=O)[C@H](Cc2c[nH]c3ccccc23)NC(=O)[C@H](Cc2ccc(O)cc2)NC(=O)[C@H](CCC(=O)O)NC1=O)[C@@H](C)O` [MP-262] (Ac-[Lys(N3)][βAla]LTF[R8]EYWAG[Cba][S5]SAA-NH2; staple 6-13) the same measures were less than 4.30, 87 µM (≈ 165 µg/mL), 0.106 µM, 207 A^2 and 2.85.
The matching figures for `CC(=O)N[C@@H](CCCCN=[N+]=[N-])C(=O)NCCC(=O)N[C@@H](CC(C)C)C(=O)N[C@H](C(=O)N[C@@H](Cc1ccccc1)C(=O)N[C@]1(C)CCCCCCC=CCCC[C@@](C)(C(=O)N[C@@H](CO)C(=O)N[C@@H](C)C(=O)N[C@@H](C)C(N)=O)NC(=O)[C@H](CC2CCC2)NC(=O)[C@@H](C)NC(=O)[C@H](C)NC(=O)[C@H](Cc2c[nH]c3ccccc23)NC(=O)[C@H](Cc2ccc(O)cc2)NC(=O)[C@H](CCC(=O)O)NC1=O)[C@@H](C)O` [MP-474] (Ac-[Lys(N3)][βAla]LTF[R8]EYWA[dA][Cba][S5]SAA-NH2; staple 6-13): less than 4.30, 156 µM (≈ 298 µg/mL), 0.148 µM, 222 A^2 and 3.07.
In turn, `CC(=O)N[C@@H](CCCCN=[N+]=[N-])C(=O)NCCC(=O)N[C@@H](CC(C)C)C(=O)N[C@H](C(=O)N[C@@H](Cc1ccccc1)C(=O)N[C@]1(C)CCCCCCC=CCCC[C@@](C)(C(=O)N[C@H](C)C(=O)N[C@@H](C)C(=O)N[C@@H](C)C(N)=O)NC(=O)[C@H](CC2CCC2)NC(=O)[C@H](CCC(N)=O)NC(=O)[C@H](C)NC(=O)[C@H](Cc2c[nH]c3ccccc23)NC(=O)[C@H](Cc2ccc(O)cc2)NC(=O)[C@H](CCC(=O)O)NC1=O)[C@@H](C)O` [MP-475] (Ac-[Lys(N3)][βAla]LTF[R8]EYWAQ[Cba][S5][dA]AA-NH2; staple 6-13) gave a pEC50 in data set [1] of less than 4.30. In addition, the solubility kinetic in data set [2] turned out to be 17 µM (≈ 33.2 µg/mL). Besides, in “in vitro”, the cell entry EC50 was 0.155 µM. In “physchem”, the EPSA amounted to 224 A^2. The same compound registered a logD in data set [3] of 2.92.
The compound `CC(=O)N[C@@H](CCCCN=[N+]=[N-])C(=O)NCCC(=O)N[C@@H](CC(C)C)C(=O)N[C@H](C(=O)N[C@@H](Cc1ccccc1)C(=O)N[C@]1(C)CCCCCCC=CCCC[C@@](C)(C(=O)N[C@@H](CO)C(=O)N[C@@H](C)C(=O)N[C@@H](C)C(N)=O)NC(=O)[C@H](CC2CCC2)NC(=O)[C@H](CCC(N)=O)NC(=O)[C@H](C)NC(=O)[C@H](Cc2c[nH]c3ccccc23)NC(=O)[C@H](Cc2ccc(O)cc2)NC(=O)CNC1=O)[C@@H](C)O` [MP-210] (Ac-[Lys(N3)][βAla]LTF[R8]GYWAQ[Cba][S5]SAA-NH2; staple 6-13) gave a pEC50 in data set [1] of less than 4.30. For the same compound, the solubility kinetic in data set [2] was 2 µM (≈ 3.8 µg/mL). Moreover, the cell entry EC50 in the data set “in vitro” came to 0.279 µM. Besides, in the data set “physchem”, the EPSA amounted to 198 A^2. In data set [3], this compound gave a logD of 3.35.
The matching figures for `CC(=O)N(C)CC(=O)N[C@@H](CCCCN=[N+]=[N-])C(=O)NCCC(=O)N[C@@H](C)C(=O)N[C@H](C(=O)N[C@@H](Cc1ccccc1)C(=O)N[C@]1(C)CCCCCCC=CCCC[C@@](C)(C(=O)N[C@@H](C)C(=O)N[C@@H](C)C(=O)N[C@@H](C)C(N)=O)NC(=O)[C@H](CC2CCC2)NC(=O)[C@H](C)NC(=O)[C@H](C)NC(=O)[C@H](Cc2c[nH]c3ccccc23)NC(=O)[C@H](Cc2ccc(O)cc2)NC(=O)[C@H](C)NC1=O)[C@@H](C)O` [MP-895] (Ac-[Sar][Lys(N3)][βAla]ATF[R8]AYWAA[Cba][S5]AAA-NH2; staple 7-14): less than 4.30, 2 µM (≈ 3.74 µg/mL), 0.197 µM, 184 A^2 and 3.46.
`CC(=O)N[C@@H](CCCCN=[N+]=[N-])C(=O)NCCC(=O)N[C@@H](CC(C)C)C(=O)N[C@H](C(=O)N[C@@H](Cc1ccccc1)C(=O)N[C@]1(C)CCCCCCC=CCCC[C@@](C)(C(=O)N[C@@H](CO)C(=O)N[C@@H](C)C(=O)N[C@@H](C)C(N)=O)NC(=O)[C@H](CC2CCC2)NC(=O)[C@@H]2CCCCNC(=O)CC[C@H](NC1=O)C(=O)N[C@@H](Cc1ccc(O)cc1)C(=O)N[C@@H](Cc1c[nH]c3ccccc13)C(=O)N[C@@H](C)C(=O)N2)[C@@H](C)O` [MP-001] (Ac-[Lys(N3)][βAla]LTF[R8]EYWAK[Cba][S5]SAA-NH2; staple 6-13; lactam 7-11) gave a pEC50 in data set [1] of less than 4.29. For the same compound, the cell entry EC50 in the data set “in vitro” stood at 1.15 µM. The compound also yielded an EPSA in the data set “physchem” of 173 A^2. The compound further returned a logD in data set [3] of 3.84.
In data set [1], `CC(=O)N[C@@H](CCCCN=[N+]=[N-])C(=O)NCCC(=O)N[C@@H](CC(C)C)C(=O)N[C@H](C(=O)N[C@@H](Cc1ccccc1)C(=O)N[C@]1(C)CCCCCCC=CCCC[C@@](C)(C(=O)N[C@@H](CO)C(=O)N[C@H](C)C(=O)N[C@@H](C)C(N)=O)NC(=O)[C@H](CC2CCC2)NC(=O)[C@H](CCC(N)=O)NC(=O)[C@H](C)NC(=O)[C@H](Cc2c[nH]c3cc(Cl)ccc23)NC(=O)[C@H](Cc2ccc(O)cc2)NC(=O)[C@H](CCC(=O)O)NC1=O)[C@@H](C)O` [MP-494] gave a pEC50 of less than 4.30. Besides, the solubility kinetic in data set [2] was found to be 86.5 µM (≈ 173 µg/mL). For the same compound, in the data set “in vitro”, the cell entry EC50 amounted to 0.706 µM. In addition, the EPSA in the data set “physchem” stood at 210 A^2. Besides, in data set [3], the logD turned out to be 3.33.
The matching figures for `CC(=O)N[C@@H](CCCCN=[N+]=[N-])C(=O)NCCC(=O)N[C@@H](CC(C)C)C(=O)N[C@H](C(=O)N[C@@H](Cc1ccccc1)C(=O)N[C@]1(C)CCCCCCC=CCCC[C@@](C)(C(=O)N[C@@H](CO)C(=O)N[C@@H](C)C(=O)N(C)CC(N)=O)NC(=O)[C@H](CC2CCC2)NC(=O)[C@H](CCC(N)=O)NC(=O)[C@H](C)NC(=O)[C@H](Cc2c[nH]c3ccccc23)NC(=O)[C@H](Cc2ccc(O)cc2)NC(=O)[C@H](CCC(=O)O)NC1=O)[C@@H](C)O` [MP-566] (Ac-[Lys(N3)][βAla]LTF[R8]EYWAQ[Cba][S5]SA[Sar]-NH2; staple 6-13): less than 4.30, 87.5 µM (≈ 172 µg/mL), 0.132 µM, 204 A^2 and 2.69.
With `CC(=O)N[C@@H](CCCCN=[N+]=[N-])C(=O)NCCC(=O)N[C@@H](CCCCNC(=N)N)C(=O)N[C@H](C(=O)N[C@@H](Cc1ccccc1)C(=O)N[C@]1(C)CCCCCCC=CCCC[C@@](C)(C(=O)N[C@@H](CO)C(=O)N[C@@H](C)C(=O)N[C@@H](C)C(N)=O)NC(=O)[C@H](CC2CCC2)NC(=O)[C@H](CCC(N)=O)NC(=O)[C@H](C)NC(=O)[C@H](Cc2c[nH]c3ccccc23)NC(=O)[C@H](Cc2ccc(O)cc2)NC(=O)[C@H](CCC(=O)O)NC1=O)[C@@H](C)O` [MP-6896] (Ac-[Lys(N3)][βAla][hArg]TF[R8]EYWAQ[Cba][S5]SAA-NH2; staple 6-13), in data set [2], the solubility kinetic was found to be 2.5 µM (≈ 5.07 µg/mL). The cell entry EC50 in the data set “in vitro” amounted to 1.13 µM. Further, the EPSA in “physchem” came out at 203 A^2. For the same compound, the logD in data set [3] turned out to be 2.79.
As to `CC(=O)N(C)CC(=O)N(C)CC(=O)N(C)CC(=O)N(C)CC(=O)N[C@@H](CC(C)C)C(=O)N[C@H](C(=O)N[C@@H](Cc1ccccc1)C(=O)N[C@]1(C)CCCCCCC=CCCC[C@@](C)(C(=O)N[C@@H](CO)C(=O)N[C@@H](C)C(=O)N[C@@H](C)C(N)=O)NC(=O)[C@H](CC2CCC2)NC(=O)[C@H](CCC(N)=O)NC(=O)[C@H](C)NC(=O)[C@H](Cc2c[nH]c3ccccc23)NC(=O)[C@H](Cc2ccc(O)cc2)NC(=O)[C@H](CCC(=O)O)NC1=O)[C@@H](C)O` [MP-361], in data set [1], the pEC50 was less than 4.30. For the same compound, the “LDH: Cytotoxicity assay: % Effect” value in the data set on HCT116 cells worked out at 2.48%. In data set [2], the solubility kinetic turned out to be 70.7 µM (≈ 143 µg/mL). Moreover, in the data set “physchem”, the EPSA came out at 212 A^2. In addition, the logD in data set [3] came to 2.52.
